In patent publication US20230203025A1, “ENHANCERS OF PARTICULATE GUANYLYL CYCLASE RECEPTOR A” (Mayo Foundation for Medical Education and Research, priority 2020, published 2023):

Experiments:
[1] = target: T1, particulate guanylyl cyclase B receptor (pGC-B) (Homo sapiens, UniProt P20594); test: cGMP selectivity assay in HEK cells overexpressing pGC-B with CNP; format: cell-based; details: in the presence of CNP
T1 construct: expressed in transfected cells; host or cells: HEK
T1 sequence (P20594 23-1047): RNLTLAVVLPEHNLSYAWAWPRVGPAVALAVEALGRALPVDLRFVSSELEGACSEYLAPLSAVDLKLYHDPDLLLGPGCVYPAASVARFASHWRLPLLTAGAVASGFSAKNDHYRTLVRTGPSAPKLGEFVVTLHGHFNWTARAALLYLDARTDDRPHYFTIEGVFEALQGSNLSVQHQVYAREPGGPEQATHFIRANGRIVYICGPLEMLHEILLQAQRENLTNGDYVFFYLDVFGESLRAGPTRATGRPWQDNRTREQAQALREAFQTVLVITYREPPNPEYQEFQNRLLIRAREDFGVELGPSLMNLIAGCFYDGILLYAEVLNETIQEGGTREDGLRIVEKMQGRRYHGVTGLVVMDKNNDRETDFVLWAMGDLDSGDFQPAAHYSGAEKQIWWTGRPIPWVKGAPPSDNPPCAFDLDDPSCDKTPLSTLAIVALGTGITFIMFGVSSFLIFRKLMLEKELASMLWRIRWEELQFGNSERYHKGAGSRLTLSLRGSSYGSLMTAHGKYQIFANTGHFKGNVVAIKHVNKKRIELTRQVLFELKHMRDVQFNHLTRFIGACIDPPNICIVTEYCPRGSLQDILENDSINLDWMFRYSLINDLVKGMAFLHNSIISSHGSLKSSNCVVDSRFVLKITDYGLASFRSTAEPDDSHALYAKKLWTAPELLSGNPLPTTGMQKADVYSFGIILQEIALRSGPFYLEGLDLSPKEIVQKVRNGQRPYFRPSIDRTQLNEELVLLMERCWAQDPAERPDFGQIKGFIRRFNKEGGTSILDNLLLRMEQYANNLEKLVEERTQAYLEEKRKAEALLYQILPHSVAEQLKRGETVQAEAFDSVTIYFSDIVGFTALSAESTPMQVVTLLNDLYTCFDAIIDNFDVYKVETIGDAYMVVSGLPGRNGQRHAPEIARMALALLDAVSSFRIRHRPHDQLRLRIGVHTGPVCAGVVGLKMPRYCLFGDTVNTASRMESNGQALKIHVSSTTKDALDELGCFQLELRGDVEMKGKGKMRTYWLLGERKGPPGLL

[2] = target: T2, extracellular domain of human pGC-A (Homo sapiens, UniProt P16066); test: SPR binding of compound 19 to pGC-A extracellular domain (Example 5)
T2 construct: the extracellular domain of human pGC-A was used
T2 sequence (P16066 33-473 limits assumed): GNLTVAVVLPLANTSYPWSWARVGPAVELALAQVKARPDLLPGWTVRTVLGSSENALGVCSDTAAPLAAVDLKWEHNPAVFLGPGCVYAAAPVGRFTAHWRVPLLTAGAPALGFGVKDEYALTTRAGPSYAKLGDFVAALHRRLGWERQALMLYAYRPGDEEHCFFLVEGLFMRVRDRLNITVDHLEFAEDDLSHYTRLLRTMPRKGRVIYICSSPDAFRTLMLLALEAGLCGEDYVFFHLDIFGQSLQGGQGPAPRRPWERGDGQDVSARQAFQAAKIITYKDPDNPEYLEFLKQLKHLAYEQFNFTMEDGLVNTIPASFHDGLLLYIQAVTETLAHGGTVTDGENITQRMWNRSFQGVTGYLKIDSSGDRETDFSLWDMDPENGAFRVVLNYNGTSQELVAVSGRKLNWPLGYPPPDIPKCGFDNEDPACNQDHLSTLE
Method: Binding Studies of compound 19 to Human pGC-A Receptor: Surface plasmon resonance (SPR) binding analysis was performed by employing the highly sensitive Biosensing Instrument 4500 system for small molecule binding. For these studies the extracellular domain of human pGC-A was used together with compound 19 at increasing concentrations.

[3] = hepatic microsomal stability, human; format: in vitro ADME
[4] = test system: primary human cardiomyocytes (HCMs); test: cGMP generation in primary human cardiomyocytes; format: cell-based
[5] = test system: primary human adipocytes (HAs; visceral and subcutaneous); test: cGMP generation in primary human adipocytes (visceral and subcutaneous); format: cell-based
[6] = test system: primary human cardiomyocytes (HCMs); test: inhibition of TGF-beta 1 induced human cardiomyocyte hypertrophy; format: cell-based; details: TGF-β1 5 ng/mL
Method: Methods (Inhibition of Human Cardiac Hypertrophy In Vitro): primary human cardiomyocytes (HCMs) were grown in growth media to 50% confluence and then were subjected to serum starvation for 24 hrs. After that, 5 ng/mL of the cytokine TGFβ-1 (R&D Systems) was added to the media for 48 hrs to induce HCM hypertrophy. […] Normal cell buffer served as a vehicle only control, where TGFP-1 alone served as the positive control. Analysis for cell surface area (μm^2) was performed using the ImageJ software at the end of the study.
Results: to further support the cGMP generation in human primary cells leads to favorable biological GC-A mediated, the anti-hypertrophic effects were assessed of Compound 19 on live HCMs stressed with TGF-β1 (5 ng/mL), using a state-of-the-art live cell imaging platform (IncuCyte System).

[7] = test system: spontaneously hypertensive rats (SHRs); test: IV bolus in spontaneously hypertensive rats; format: in vivo, rat; details: SHR, single IV bolus 10 mg/kg
Method: Methods (IV Bolus Administration of Compound 19 in (SHRs): the cGMP generating and blood pressure lowering actions of a single IV bolus dose of Compound 19 at 10 mg/kg in spontaneously hypertensive rats (SHRs; n=2; 12 weeks old; Envigo, East Millstone, N.J.) were investigated. Studies were performed in accordance with the Animal Welfare Act and with approval of the Mayo Clinic Institutional Animal Care and Use Committee.
SHRs were anesthetized in an induction chamber with inhaled isoflurane 3%.
During this brief state of anesthesia, SHRs were administered Inactin (100 mg/kg; IP to induce anesthesia and then maintained with by additional Inactin 100 mg/kg (IP), as required. Once adequate anesthesia was achieved, the anesthetized SHRs were subjected to vessel and bladder cannulation for Compound 19 administration, blood sampling and urine collection. A polyethylene (PE)-50 tube catheter was placed into the jugular vein for Compound 19 intravenous (IV) administration. The carotid artery was cannulated with a PE-50 tube catheter for blood pressure monitoring and blood sampling/collection. The bladder was accessed and cannulated with a PE-50 tube catheter for passive urine collection. After completion of the above procedural set up, a 45-minute equilibration period was performed that included a 30-minute baseline urine collection and a single baseline blood sample was performed.

cGMP activity in cells expressing pGC-B [1]: devoid of cGMP activity
binding to human pGC-A ([2]; Response (RU) increasing with concentration): clearly validated
Kd ([2]; compound 2.5 to 20 μM with 0.25 μM pGC-A receptor extracellular domain): 4.1 µM
Hepatic Microsomal Stability (% remaining at 1 h) [3]: 98.2%
SMILES: CN(C)CCN1CCCC(C(=O)Nc2nc3c(F)cc(F)cc3s2)C1 (centres unmarked) [Compound 19]
cGMP generation ([4]; HCMs, 1, 5 or 10 μM compound in the presence of ANP (10^−10 M)): clear increase in cGMP generation
cGMP generation ([4]; HCMs, compound alone at similar dose, no ANP): did not generate cGMP generation
cGMP generation ([5]; HAs, 1, 5 and 10 μM compound in the presence of ANP (10^−10 M)): clear increase in cGMP generation
cGMP generation ([5]; HAs, compound alone at similar dose, no ANP): did not generate cGMP generation
inhibition of HCM hypertrophy ([6]; Compound 19 (1, 5, 10 μM) with ANP 10^−8 M): significant inhibition
inhibition of HCM hypertrophy ([6]; Compound 19 (1, 5, 10 μM) with ANP 10^−10 M): significant inhibition
diuresis (urine volume) [7]: increase in diuresis
mean arterial pressure ([7]; 0-60 min): decrease in mean arterial pressure
plasma cGMP ([7]; compared to baseline): increase
urinary cGMP ([7]; compared to baseline): increase
